Reference: patent US3949090A, “Methods and compositions for improving feed efficiency in ruminants using dithiooxamide” (SmithKline Corporation, priority 1974, dated 1976)

What was measured:
[1] = test system: volatile fatty acid production (strained rumen fluid); assay: In vitro volatile fatty acid production; assay type: cell-based; conditions: Table III, dithiooxamide 0 ppm; for Volatile Fatty Acids (molar distribution, %): Propionate: control 15; for Volatile Fatty Acids (molar distribution, %): Butyrate: control 21; for Volatile Fatty Acids (molar distribution, %): Acetate: control 64; for Volatile Fatty Acid Carbon: control 125
Procedure: (§1) The in vitro fermentation system contained 75 ml. strained rumen fluid, 200 mg, alfalfa hay, 800 mg. of a crude protein grain mixture, 0.8 to 1.6 mM of each of 10 essential amino acids (threonine, valine, methionine, isoleucine, leucine, phelylalanine, tryptophan, lysine and arginine), and 0 to 50 ppm dithiooxamide. Flasks were incubated for 4 hours with effects upon amino acid deamination assessed as described for the previous system. Using standard chromatographic techniques, effects upon methanogenesis and upon the pattern of volatile fatty acid production were determined.
(§2) ^1 In vitro fermentation system contained 75 ml. strained rumen fluid
(§3) 200 mg. alfalfa hay, 800 mg. grain mixture (16% crude protein) and 1.6 mM
(§4) of each of ten essential amino acids. Flasks were incubated for four
(§5) 200 mg. alfalfa hay, 800 mg. grain mixture (16% crude protein) and 0.8 mM

[2] = test system: methanogenesis (strained rumen fluid); assay: In vitro effects upon methanogenesis; assay type: cell-based; conditions: Table III, dithiooxamide 0 ppm
Procedure: as §1, §2, §3, §4, §5

[3] = test system: Microbial Deaminase (strained rumen fluid); assay: In vitro microbial deaminase inhibition (rumen fluid, alfalfa hay, grain mixture; 4 hours); assay type: cell-based; conditions: Table III, dithiooxamide 0 ppm, 240 min
Procedure: as §1, §2, §3, §4, §5

[4] = test system: gas production (strained rumen fluid); assay: In vitro gas production; assay type: cell-based; conditions: Table III, dithiooxamide 0 ppm, control 65
Procedure: as §1, §2, §5, §4

[5] = test system: sheep; conditions: amino acid supplement; cited from earlier work
[6] = test system: protein deposition; conditions: compared with acetate; Potter et al., Eskeland et al.; cited from earlier work

## O=S(=O)([O-])[O-].[Co+2] [Cobalt Sulfate, reference compound]
[1]; cobalt sulfate .013 ppm
  Volatile Fatty Acids (molar distribution, %): Propionate: 15%
  Volatile Fatty Acids (molar distribution, %): Butyrate: 22%
  Volatile Fatty Acids (molar distribution, %): Acetate: 63%
  Volatile Fatty Acid Carbon: 120 μ moles/ml.
[1]; cobalt sulfate .067 ppm
  Volatile Fatty Acids (molar distribution, %): Propionate: 15%
  Volatile Fatty Acids (molar distribution, %): Butyrate: 22%
  Volatile Fatty Acids (molar distribution, %): Acetate: 63%
  Volatile Fatty Acid Carbon: 127 μ moles/ml.
[2]; cobalt sulfate .013 ppm
  Methane Inhibition (%): 1%
[2]; cobalt sulfate .067 ppm
  Methane Inhibition (%): -5%
[3]; cobalt sulfate .013 ppm
  MDI (%): 1%
[3]; cobalt sulfate .067 ppm
  MDI (%): 2%
[4]; cobalt sulfate .013 ppm
  Gas Production: 65 cc
[4]; cobalt sulfate .067 ppm
  Gas Production: 65 cc

## O=S(=O)([O-])[O-].[Cu+2] [Copper Sulfate, reference compound]
[1]; copper sulfate .067 ppm
  Volatile Fatty Acids (molar distribution, %): Propionate: 15%
  Volatile Fatty Acids (molar distribution, %): Butyrate: 21%
  Volatile Fatty Acids (molar distribution, %): Acetate: 64%
  Volatile Fatty Acid Carbon: 123 μ moles/ml.
[1]; copper sulfate .333 ppm
  Volatile Fatty Acids (molar distribution, %): Propionate: 15%
  Volatile Fatty Acids (molar distribution, %): Butyrate: 22%
  Volatile Fatty Acids (molar distribution, %): Acetate: 63%
  Volatile Fatty Acid Carbon: 121 μ moles/ml.
[2]; copper sulfate .067 ppm
  Methane Inhibition (%): -5%
[2]; copper sulfate .333 ppm
  Methane Inhibition (%): -11%
[3]; copper sulfate .067 ppm
  MDI (%): 3%
[3]; copper sulfate .333 ppm
  MDI (%): 6%
[4]; copper sulfate .067 ppm
  Gas Production: 65 cc
[4]; copper sulfate .333 ppm
  Gas Production: 64 cc

## CSCC[C@H](N)C(=O)O [Methionine]
[5]
  quality of wool in sheep (in words): particularly useful in increasing the quality of wool in sheep

## CCC(=O)O [propionate]
[6]
  energy metabolites for protein deposition in sheep (in words): better energy metabolites than acetate for protein deposition in sheep
